Source: patent US6572788B2, “Amine oxide wood preservatives” (Lonza, Inc., priority 2000, dated 2003)
Values belong to the compound of their own block, whether it stands above or below them.

Key:
[1] = system: G. trabeum (brown rot fungi); assay: Agar dilution plate method, wood rot fungi; assay type: cell-based; details: G. trabeum, 100% growth retardation, Table 14
Procedure: (§1) The efficacy of the aqueous amine oxide solutions in Table 14 at various concentrations against the wood rot fungi T. versicolor (white rot fungi), G. trabeum (brown rot fungi), P. placenta (brown rot fungi), and C. globosum (soft rot decay fungi) were determined using the agar dilution plate method well known in the art. […] The percent retardation of the fungi was determined by the percentage change in the diameter of the fungi on the agar plate (i.e. Percent Retardation=((Diameter of Control)−(Diameter of Treated Fungi))/(Diameter of Control)*100%).

[2] = system: P. placenta (brown rot fungi); assay: Agar dilution plate method, wood rot fungi; assay type: cell-based; details: P. placenta, 100% growth retardation, Table 14
Procedure: as §1

[3] = system: T. versicolor (white rot fungi); assay: Agar dilution plate method, wood rot fungi; assay type: cell-based; details: T. versicolor, 100% growth retardation, Table 14
Procedure: as §1

[4] = system: C. globosum (soft rot decay fungi); assay: Agar dilution plate method, wood rot fungi; assay type: cell-based; details: C. globosum, 100% growth retardation, Table 14
Procedure: as §1

[5] = system: Chaetomium globsum (C. globsum), a soft rot fungus; assay: Agar plate method, fungus growth inhibition; assay type: cell-based
Procedure: (§2) The efficacy of aqueous solutions of amine oxides and didecyldimethyl ammonium chloride to inhibit fungus growth was evaluated by the agar plate method known in the art. […] The fungi tested were Trametes versicolor (T. versicolor), a white rot fungus; Gloeophyllum trabeum (G. trabeum), a brown rot fungus which is tolerant of arsenic and phenolic type wood preservatives; Poria placenta (P. placenta), a brown rot fungus which is tolerant to copper in wood preservatives; Lentinus lepideus (L. lepideus), a brown rot fungus which is tolerant to creosote; Coniophora puteana (C. puteana), a brown rot fungus; and Chaetomium globsum (C. globsum), a soft rot fungus.

[6] = system: Lentinus lepideus (L. lepideus), a brown rot fungus; assay: Agar plate method, fungus growth inhibition; assay type: cell-based
Procedure: as §2

[7] = system: Coniophora puteana (C. puteana), a brown rot fungus; assay: Agar plate method, fungus growth inhibition; assay type: cell-based
Procedure: as §2

[8] = system: Gloeophyllum trabeum (G. trabeum), a brown rot fungus; assay: Agar plate method, fungus growth inhibition; assay type: cell-based
Procedure: as §2

[9] = system: Trametes versicolor (T. versicolor), a white rot fungus; assay: Agar plate method, fungus growth inhibition; assay type: cell-based; details: 50% retardation of growth
Procedure: as §2

[10] = system: Poria placenta (P. placenta), a brown rot fungus; assay: Agar plate method, fungus growth inhibition; assay type: cell-based
Procedure: as §2

stains, molds, and fungi [11] = assay: Wood preserving efficacy on freshly cut white birch wood (dip treatment, sealed bag); set-up: key: 4 - Clean with no visible stain or mold; 3 - Trace amount of white/black fungal growth; 2 - Black and/or white fungal growth visible on all faces and ends; 1 - Heavy fungal growth
Procedure: The wood preserving efficacy of each aqueous test solution in Table 1 below was tested on freshly cut white birch wood as follows. All percentages in Table 1 are by weight. A branch of white birch tree measuring about 3 inches in diameter was cut into pieces about 6 inch in length. Each piece was then split into 4 sections. Each section was dipped into the test solution for about 1 minute and blotted with a paper towel to remove excess liquid. The sections were sealed in a clear plastic bag and stored at ambient conditions. The sections were observed after 1, 3, 7, and 12 weeks for the growth of stains, molds, and fungi. The aqueous test solutions were prepared by mixing the active ingredient with water.

stains, molds, and fungi [12] = assay: Wood preserving efficacy on freshly cut beech wood (dip treatment); details: beech wood pieces (Example 15); further: key: 4 - Clean with no visible stain or mold; 3 - Trace amount of white/black fungal growth; 2 - Black and/or white fungal growth visible on all faces and ends; 1 - Heavy fungal growth
Procedure: The wood preserving efficacy of each aqueous test solution in Table 18 below was tested on freshly cut beech wood (Fagus grandifolia Ehrh.) as follows. All percentages in Table 18 are by weight. A 1″ branch of a beech tree was split into two pieces. The bark was left on the pieces. Each piece was dipped into the test solution for about 1 minute and blotted with a paper towel to remove excess liquid. […] The aqueous test solutions were prepared by mixing the active ingredient with water.

Termite = assay: Field stake test (AWPA E7), southern yellow pine stakes in ground: termite attack; details: 10 stakes, 10 = free of termite attack, 0 = completely attacked
Procedure: (§3) 40″ by ¾″ by ¾″ pieces of southern yellow pine lumber were treated with the aqueous solution prepared in Example 1 according to the procedure described in the American Wood Preservers' Association test method E7, which is hereby incorporated by reference. The procedure is generally as follows. The southern yellow pine lumber pieces were placed in a pressure treating cylinder for about 30 minutes at about −90 kPa, injected with the aqueous solution, and pressurized to about 800 kPa for about 30 minutes. The pressure was released by the addition of air and the solution was drained.
(§4) This procedure was repeated with aqueous solutions containing 0.5 or 1.0% by weight of copper chromium arsenate (CCA) and aqueous solutions containing 0.5, 1.0, or 1.5% by weight of didecyl dimethyl ammonium chloride (DDAC).
(§5) After 11 months, the stakes were observed.

Decay = assay: Field stake test (AWPA E7), southern yellow pine stakes in ground: decay; details: 10 stakes, 10 = all stakes intact and free of decay, 0 = completely decayed
Procedure: as §3, §4, §5

stains, molds, and fungi [13] = assay: Wood preserving efficacy on freshly cut green chestnut oak (dip treatment); set-up: scale not given here
stains, molds, and fungi [14] = assay: Wood preserving efficacy on freshly cut tulip wood (dip treatment); further: key: 4 - Clean with no visible stain or mold; 3 - Trace amount of white/black fungal growth; 2 - Black and/or white fungal growth visible on all faces and ends; 1 - Heavy fungal growth
Procedure: The wood preserving efficacy of each aqueous test solution in Table 17 below was tested on freshly cut tulip wood (also known as Tulip-Popular, Yellow Popular, and Liriodendron tulipfera L.) as follows. All percentages in Table 17 are by weight. Pieces of tulip wood cut from a 4″ debarked branch were cut into pieces. Each piece was then split into 4 sections. Each section was dipped into the test solution for about 1 minute and blotted with a paper towel to remove excess liquid. The sections were sealed in a clear plastic bag and stored at ambient conditions. The sections were observed after 1, 3, 7, and 11 weeks for the growth of stains, molds, and fungi. The aqueous test solutions were prepared by mixing the active ingredient with water.

[15] = Field Site A, listed as 0.5% (w/w) DDAC
[16] = Field Site A, listed as 1.0% (w/w) DDAC
[17] = Field Site A, listed as […] (w/w) DDAC

Compound: Coco-dimethylamine oxide
MIC (ppm of amine oxides) [1]: 500 ppm
MIC (ppm of amine oxides) [2]: 500-1000 ppm
MIC (ppm of amine oxides) [3]: 750 ppm
MIC (ppm of amine oxides) [4]: >1000 ppm
IC50 [5]: 50-70 ppm
IC50 [6]: 15 ppm
IC50 [7]: 80 ppm
IC50 [8]: 10-15 ppm
IC50 [9]: 40-50 ppm
IC50 [10]: 3-7 ppm
Rating of treated white birch sections vs. Time (stains, molds, and fungi [11]; 1 week): 4
Rating of treated white birch sections vs. Time (stains, molds, and fungi [11]; 3 weeks): 4
Rating of treated white birch sections vs. Time (stains, molds, and fungi [11]; 7 weeks): 3
Rating of treated white birch sections vs. Time (stains, molds, and fungi [11]; 12 weeks): 2

MIC ([1]; Gloeophyllum trabeum, read-out: MIC (ppm of amine oxides)): > 1000 µg/mL
MIC ([2]; read-out: MIC (ppm of amine oxides)): > 1000 µg/mL
MIC ([3]; Trametes versicolor, read-out: MIC (ppm of amine oxides)): > 1000 µg/mL
MIC ([4]; Chaetomium globosum, read-out: MIC (ppm of amine oxides)): > 1000 µg/mL
IC50 [5]: 20-50 ppm
IC50 [6]: 3 ppm
IC50 [7]: 80 ppm
IC50 [8]: 25-30 ppm
IC50 [9]: 30 ppm
IC50 [10]: 5-25 ppm
Compound: CCCCCCCCCCCCCCCC[N+](C)(C)[O-] [Hexadecyl dimethylamine oxide, hexadecyl dimethylamine oxide]
Rating of treated white birch sections vs. Time (stains, molds, and fungi [11]; 1 week): 3
Rating of treated white birch sections vs. Time (stains, molds, and fungi [11]; 3 weeks): 2
Rating of treated white birch sections vs. Time (stains, molds, and fungi [11]; 7 weeks): 2
Rating of treated white birch sections vs. Time (stains, molds, and fungi [11]; 12 weeks): 2

Compound: CCCCCCCCCC[N+](C)(C)CCCCCCCCCC.[Cl-] [Didecyldimethyl ammonium chloride, didecyldimethylammonium chloride, reference compound]
Rating of treated tulip sections vs. Time (stains, molds, and fungi [12]; 1 week): 4
Rating of treated tulip sections vs. Time (stains, molds, and fungi [12]; 3 weeks, listed as 0.32% Didecyldimethyl ammonium chloride): 2
Rating of treated tulip sections vs. Time (stains, molds, and fungi [12]; 3 weeks, listed as 0.65% Didecyldimethyl ammonium chloride): 3.5
Rating of treated tulip sections vs. Time (stains, molds, and fungi [12]; 7 weeks): 2
Rating of treated tulip sections vs. Time (stains, molds, and fungi [12]; 11 weeks): 2
IC50 [5]: 10-20 ppm
IC50 [8]: 10-40 ppm
IC50 [9]: 30-50 ppm
IC50 [10]: 5-25 ppm
Rating after 11 Months, Termite Attack (Termite; [15]): 9.3 ± 0.9
Rating after 11 Months, Termite Attack (Termite; [16]): 9.9 ± 0.3
Rating after 11 Months, Termite Attack (Termite; [17]): 8.9 ± 1.3
Rating after 11 Months, Termite Attack (Termite; Field Site B): 10
Rating of treated white birch sections vs. Time (stains, molds, and fungi [11]; 1 week): 4
Rating of treated white birch sections vs. Time (stains, molds, and fungi [11]; 3 weeks): 4
Rating of treated white birch sections vs. Time (stains, molds, and fungi [11]; 7 weeks): 3
Rating of treated white birch sections vs. Time (stains, molds, and fungi [11]; 12 weeks): 3
Rating after 11 Months, Decay (Decay; [15]): 9.9 ± 0.3
Rating after 11 Months, Decay (Decay; [16]): 10
Rating after 11 Months, Decay (Decay; [17]): 10
Rating after 11 Months, Decay (Decay; Field Site B): 10
Rating of treated green chestnut oak sections vs. Time (stains, molds, and fungi [13]; 2 weeks): 3
Rating of treated green chestnut oak sections vs. Time (stains, molds, and fungi [13]; 4 weeks): 2
Rating of treated green chestnut oak sections vs. Time (stains, molds, and fungi [13]; 5 weeks): 2
Rating of treated green chestnut oak sections vs. Time (stains, molds, and fungi [13]; 9 weeks): 1
Rating of treated tulip sections vs. Time (stains, molds, and fungi [14]; 1 week): 4
Rating of treated tulip sections vs. Time (stains, molds, and fungi [14]; 3 weeks): 4
Rating of treated tulip sections vs. Time (stains, molds, and fungi [14]; 7 weeks, listed as 0.32% Didecyldimethyl ammonium chloride): 3.5
Rating of treated tulip sections vs. Time (stains, molds, and fungi [14]; 7 weeks, listed as 0.65% Didecyldimethyl ammonium chloride): 4
Rating of treated tulip sections vs. Time (stains, molds, and fungi [14]; 11 weeks, listed as 0.32% Didecyldimethyl ammonium chloride): 3.5
Rating of treated tulip sections vs. Time (stains, molds, and fungi [14]; 11 weeks, listed as 0.65% Didecyldimethyl ammonium chloride): 4
